Measurements taken from patent US11898168B2, “Methods of promoting esophageal differentiation of pluripotent stem cells” (The Trustees of Columbia University in the City of New York, priority 2017, dated 2024).

Assays:
Type in all cases: cell-based, human
NOTCH signaling = test: Expression of NOTCH downstream targets in iPSC-derived EPCs; conditions: 10 μM
Experimental: (§1) Cells were lysed with TRIzol (Invitrogen) and RNA was purified using the RNeasy Mini Kit (QIAGEN). RNA was reversely transcribed to cDNA by the SuperScript III First-Strand SuperMix (Invitrogen). cDNA was quantified by real-time PCR using the iQ SYBR Green Supermix (Bio-Rad) and StepOnePlus™ Real-Time PCR System (Applied Biosystems). The transcript level of each gene was normalized to the ß-actin control using 2(−ΔΔCT) method. Relative gene expression was calculated and reported as fold change compared to the indicated samples using ß-actin normalized transcript level. All qRT-PCR experiments were performed at least triplicate.
(§2) It was then tested whether NOTCH signaling is involved in the differentiation of hPSC-derived EPCs. The iPSC-derived EPCs were treated with 10 μM γ-secretase inhibitor DAPT to block NOTCH signaling. As expected, treatment with DAPT led to downregulation of HESS, HEY1 and HEY2, the downstream targets of NOTCH signaling (Kopan and Ilagan, 2009).

hPSC-derived EPCs = test: Squamous differentiation of purified hPSC-derived EPCs (KRT13, INV, KRT14 levels)
Experimental: To perform cell surface marker staining, cells were disassociated with 0.05% Trypsin-EDTA (ThermoFisher Scientific) and stained with fluorophore conjugated antibodies in FACS buffer (1×PBS, 2% FBS, 0.2 mM EDTA) for 30 min with live/dead staining dye (LIVE/DEAD™ Fixable Violet Dead Cell Stain Kit, ThermoFisher Scientific) to exclude dead cells. Intracellular staining cells were performed according to the manufacturer's instructions in eBioscience™ Foxp3/Transcription Factor Staining Buffer Set (ThermoFisher Scientific). Fixation and permeabilization was performed at room temperature for 1 hour followed by incubation of primary antibody for 1 hour. Cells were washed with 1×PBS and fluorophore-conjugated secondary antibodies were incubated for 1 hour. Stained cells were analyzed BD FACSCanto (BD Biosciences) data were analyzed with FlowJo software (Ashland, Oregon). Sorted EPCAM^+ ITGß4^+ cells were maintained in the medium containing 5% FBS, 20 ng/ml EGF, 20 ng/ml FGF2 and 10 μM Rock inhibitor Y27632.
as §1
The inventors have previously shown that BMP signaling activation promotes terminal differentiation of esophageal progenitors in the developing and adult esophagus (Jiang et al., 2015; Rodriguez et al., 2010). It was asked whether purified hPSCs-derived EPCs (ESC and iPSC-derived) respond to BMP activation in a similar manner.
as §2

[1] = system: hESC RUES2-derived AFE cells; test: Specification of anterior foregut endoderm (AFE) towards esophageal progenitor cells, day 6-16, gene expression by qPCR/immunostaining
Experimental: hPSCs were differentiated into endodermal and anterior foregut using a previously described protocol (Huang et al., 2015; Huang et al., 2014). Serum-Free Differentiation (SFD) medium was prepared as follows: 750 ml of reconstituted IMDM (ThermoFisher Scientific), 250 ml of F-12 (Corning), 7.5 ml of BSA (ThermoFisher Scientific), 10 ml of Glutamax (ThermoFisher Scientific), 5 ml of N2 (ThermoFisher Scientific), 10 ml of B27 (ThermoFisher Scientific) and 10 ml of Penicillin/Streptomycin (ThermoFisher Scientific), and adding L-Ascorbic acid (Sigma-Aldrich) and MTG (Sigma-Aldrich) on the day of use to obtain a final concentration of 50 μg/ml and 0.04 μl/ml, respectively. To generate endoderm, hPSCs were detached by Accutase/EDTA and cultured in SFD medium plus 10 μM Rock inhibitor 100 ng/ml Activin A, Y-27632 (Tocris), 2.5 ng FGF2 and 0.5 ng/ml BMP4 (R&D Systems) in 6-well Ultra-Low-Attachment plates (Corning) for 72 hours (day 1-4). At day 4, anterior foregut progenitor cells were further induced by culturing endoderm in SFD medium plus 10 μM SB431542 (Tocris) and 100 ng/ml Noggin (R&D Systems) for 24 hours (day 4-5) and SFD medium plus 10 μM SB431542 and 1 μM IWP-2 (Tocris) for another 24 hours (day 5-6). Cells were maintained at 5% O2/95% N2/5% CO2 from day 1-6.
To induce esophageal progenitor cell differentiation, anterior foregut progenitor cells were cultured from day 6 to day 16 in SFD medium plus 10 μM SB431542 and 50 ng/ml Noggin. From day 16 to day 24, cells were maintained at SFD medium. A previously described protocol was followed to generate lung progenitor cells from AFE (Huang et al., 2015; Huang et al., 2014) in which AFE cells were cultured in 3 μM CHIR99021 (Tocris), 10 ng/ml human FGF10 (R&D Systems), 10 ng/ml human KGF (R&D Systems), 10 ng/ml human BMP4 and 50 nM retinoid acid (RA, Sigma). Cells were cultured at 5% O2/95% N2/5% CO2 at day 6-7 and maintained at 95% air/5% CO2 from day 7 onwards.
For immunofluorescence staining, cells were fixed in 4% paraformaldehyde (PFA) for 15 minutes at room temperature and washed with 1×PBS for three times. Cells were permeabilized with 0.3% Triton X-100 in 1×PBS for 15 minutes. Then cells were incubated in blocking solution (0.3% Triton X-100 plus 2% donkey serum in 1×PBS) for 1 hour. Primary antibodies were added into blocking solution and incubated at 4° C. overnight. The next day, cells were washed with 1×PBS for three times. Secondary antibodies conjugated to Alexa Fluor 488, Cy3, or Alexa Fluor 647 (Jackson Immunoresearch) were incubated for 1 hour. Images were taken using Leica DMI6000 B (Leica Microsystems) or DMi8 (Leica Microsystems) and a Zeiss LSM700 confocal laser scanning microscope. Bright field images were acquired using a Nikon Labophot 2 microscope equipped with a Nikon Digital Sight DS-Ri1 charge-coupled device camera. The thickness and areas composed of KRT13^+ cells were calculated by ImageJ (National Institutes of Health). For X-gal staining, tissues were fixed in 4% paraformaldehyde for 30 minutes and incubated in X-gal solution overnight at 37° C. as previously described (Que et al., 2006).
as §1

[2] = 10 μM, iPSC-derived EPCs, vs vehicle, FIG. 6D
[3] = WNT activation in the presence of Noggin and SB431542, FIG. 1F
[4] = BMP4 treatment vs vehicle, ESC and iPSC-derived EPCs, FIGS. 6A-B

With `C[C@H](NC(=O)Cc1cc(F)cc(F)c1)C(=O)N[C@H](C(=O)OC(C)(C)C)c1ccccc1` [DAPT] the “HESS expression (downstream target of NOTCH signaling)” value (NOTCH signaling) was “downregulation”, the “HEY1 expression (downstream target of NOTCH signaling)” value (NOTCH signaling) was “downregulation” and the “HEY2 expression (downstream target of NOTCH signaling)” value (NOTCH signaling) was “downregulation”. For the same molecule, the “expression of INV at the transcription and protein levels” value (hPSC-derived EPCs; [2]) was “reduced expression”, the “expression of KRT13 at the transcription and protein levels” value (hPSC-derived EPCs; [2]) was “reduced expression” and the “initial EPC commitment from the AFE” value ([1]; DAPT applied during PSC differentiation from AFE to EPC, FIG. 6C) was “did not affect”.

In the case of `Cc1c[nH]c(-c2cnc(NCCNc3ccc(C#N)cn3)nc2-c2ccc(Cl)cc2Cl)n1` [GSK inhibitor], the “levels of the general foregut marker SOX2” value [1, 3] is reported as “remained unchanged”, the “levels of the posterior foregut marker HNF6” value [1, 3] is reported as “increased” and the “levels of the posterior foregut marker PROX1” value [1, 3] is reported as “increased”. The p63 expression [1, 3] was “reduced p63 expression in a dose-dependent manner”.

For `Cc1ccc2nc(NC(=O)CSc3nc4c(c(=O)n3-c3ccccc3)SCC4)sc2c1` [IWP2], the esophageal specification ([1]; Noggin plus SB431542 in combination with 0.5, 1 or 2 μM IWP2, day 6 to day 16, gene expression at day 16, FIG. 1I) was “does not affect” and the p63 expression ([1]; added to culture treated with Noggin and SB431542 at day 6-16, FIG. 1I) was “did not further promote”.

B1: BMP4: BMP signaling activator, growth factor (R&D Systems) (protein, UniProt P12644 293-408, looked up)
Bone morphogenetic protein 4: SPKHHSQRARKKNKNCRRHSLYVDFSDVGWNDWIVAPPGYQAFYCHGDCPFPLADHLNSTNHAIVQTLVNSVNSSIPKACCVPTELSAISMLYLDEYDKVVLKNYQEMVVEGCGCR
For B1, the “differentiation of hPSC-derived EPCs” value (hPSC-derived EPCs; BMP4 treatment) was “promotes”, the “levels of Involucrin (INV)” value (hPSC-derived EPCs; [4]) was “significantly increase” and the “levels of KRT13” value (hPSC-derived EPCs; [4]) was “significantly increase”. For the same molecule, the “levels of KRT14” value (hPSC-derived EPCs; BMP4 treatment, FIG. 6B) was “increased”.

B2: DKK1: WNT inhibitor (protein, UniProt O94907 32-266, looked up)
Dickkopf-related protein 1: TLNSVLNSNAIKNLPPPLGGAAGHPGSAVSAAPGILYPGGNKYQTIDNYQPYPCAEDEECGTDEYCASPTRGGDAGVQICLACRKRRKRCMRHAMCCPGNYCKNGICVSSDQNHFRGEIEETITESFGNDHSTLDGYSRRTTLSSKMYHTKGQEGSVCLRSSDCASGLCCARHFWSKICKPVLKEGQVCTKHRRKGSHGLEIFQRCYCGEGLSCRIQKDHHQASNSSRLHTCQRH
B2 was tested, and the p63 expression ([1]; WNT inhibitor alone, hPSCs, FIG. 1E) was “insufficient”.

B3: Noggin: BMP inhibitor (R&D Systems) (protein, UniProt Q13253 28-232, looked up)
Noggin: QHYLHIRPAPSDNLPLVDLIEHPDPIFDPKEKDLNETLLRSLLGGHYDPGFMATSPPEDRPGGGGGAAGGAEDLAELDQLLRQRPSGAMPSEIKGLEFSEGLAQGKKQRLSKKLRRKLQMWLWSQTFCPVLYAWNDLGSRFWPRYVKVGSCFSKRSCSVPEGMVCKPSKSVHLTVLRWRCQRRGGQRCGWIPIQYPIISECKCSC
B3 was tested, and the “AFE differentiation into p63+ NKX2.1- EPCs” value ([1]; Noggin treatment alone at day 6-16, FIG. 1E) was “insufficient”.
